{"source": "patent US20050070607A1", "about": "“N-acetylcysteine compositions and methods for the treatment and prevention of cysteine/glutathione deficiency in diseases and conditions” (priority 2003, published 2005)", "origin": "cited, not measured here", "key": {"[1]": {"tested_on": "patients with high plasma Lp(a)", "conditions": "plasma homocysteine; Lp(a) >0.3 g/l; 4000 mg daily po; n 11; 14 days; Wiklund 1996[277]"}, "[2]": {"tested_on": "normal subjects breathing against high inspiratory loads", "conditions": "development of diaphragm fatigue; 150 mg/kg IV; n 4; 3 weeks; Travaline 1997[37]"}, "[3]": {"tested_on": "otitis media with effusion", "conditions": "instillation into one ear; recurrence, VT re-insertion, time until VT extrusion; 0.05 ml Mucomyst solution at 1, 3 and 7 days; n 75; 39 months; Ovesen 2000[53]"}, "[4]": {"tested_on": "non-insulin dependent diabetic (NIDDM) patients"}, "[5]": {"conditions": "compared with the stable cysteine disulfide"}, "plaque formation": {"tested_on": "plaque formation", "conditions": "2 weeks, Bowles 1985[61]"}, "Hyperoxic ventilation": {"tested_on": "Hyperoxic ventilation", "conditions": "whole body oxygen uptake, oxygen extraction ratio, gastric intramucosal pH; IV over 15 min; n 38; 72 hours; Reinhart 1995[266]"}, "[6]": {"tested_on": "Contrast-induced nephropathy (CIN)"}, "[7]": {"tested_on": "patients who have already developed fulminant hepatic failure", "conditions": "observational study, one hundred patients [138]"}, "[8]": {"tested_on": "patients with unstable angina pectoris"}, "[9]": {"tested_on": "Sickle Cell Disease/Vaso-occlusive disease", "conditions": "2,400 mg daily, 12 months, Pace 2003[18]"}, "[10]": {"tested_on": "subjects classified as slow clearers", "conditions": ".6 g oral daily, 60 days, Todisco 1985[38]"}, "Sjogren's syndrome": {"tested_on": "Sjogren's syndrome", "conditions": "ocular soreness, ocular irritability, halitosis, daytime thirst; 200 mg daily; n 26; 6 weeks; Walters 1986[56]"}, "Chronic blepharitis": {"tested_on": "Chronic blepharitis", "conditions": "tear film quality (FBUT, mucous fern pattern); 300 mg/day po; n 40; 4 months; Yalcin 2002[57]"}, "[11]": {"tested_on": "premature infants with chronic lung disease", "conditions": "intratracheal NAC 5%; total airway resistance, cyanotic spells; n 22; 24 hours; Bibi 1992[203]"}, "Malnourished children": {"tested_on": "Malnourished children", "conditions": "GSH synthesis rate and concentration; 0.5 mmol per kg per day; placebo alanine; n 32; 50 days; Badaloo 2002[54]"}, "cardiac risk patients": {"tested_on": "cardiac risk patients", "conditions": "oxygen consumption, cardiac index, ST-depression during brief hyperoxia; 150 mg/kg IV; n 30; 30 min; Spies 1996[11]"}, "[12]": {"tested_on": "Hepatic transplant patients", "conditions": "oxygen delivery and consumption, base deficit; 150 mg/kg for 15 min; 12.5 mg/kg for 4 h; n 50; 5 hours; Bromley 1995[19]"}}, "note": "Like-named read-outs stand apart in the source and are kept apart here."}
{"compound": "CC(=O)N[C@@H](CS)C(=O)O", "note": "[NAC, N-acetylcysteine]", "values": [{"measurement": "Beneficial effects", "setting": "[1]", "result": "Beneficial"}, {"measurement": "time for elevated serum lactate levels to return to normal vs placebo", "setting": "severe malaria; 300 mg/kg intravenously over 20 hours, 30 subjects [51]", "result": "twice as quickly"}, {"measurement": "Beneficial effects", "setting": "severe malaria; quinine-treated malaria, serum lactate, 300 mg/kg IV, n 30, 20 hours, Watt 2002[51]", "result": "Beneficial"}, {"measurement": "Beneficial effects", "setting": "[2]", "result": "Beneficial"}, {"measurement": "Beneficial effects", "setting": "[3]", "result": "Beneficial"}, {"measurement": "Beneficial effects", "setting": "[4]; erythrocyte GSH, GSH:GSSG ratio, plasma soluble VCAM-1, 1200 mg/day po, n 15, 1 month, De Mattia 1998[21]", "result": "Beneficial"}, {"measurement": "erythrocyte GSH concentration and rate of its synthesis", "setting": "[4]; type 2 diabetics, two weeks of dietary supplementation, Jahoor ongoing study [197]", "result": "significant increases"}, {"measurement": "solubility relative to cystine", "setting": "[5]", "result": "much more soluble"}, {"measurement": "reduction on plaque attributable to NAC", "setting": "plaque formation; p < .001, 10% aqueous solution", "result": "25.56% reduction on plaque attributable to"}, {"measurement": "Beneficial effects", "setting": "plaque formation; plaque indices, 10% aqueous solution of NAC buffered to pH 6.5, n 28", "result": "Beneficial"}, {"measurement": "Treatment effect", "setting": "Hyperoxic ventilation", "result": "Beneficial"}, {"measurement": "RR (incidence of contrast-induced nephropathy)", "setting": "[6]; 400 mg PO bid for 2 days, n 121, Shyu 2002[8]", "result": "contrast-induced nephropathy (RR 0.13)"}, {"measurement": "RR (incidence of post-catheterization nephropathy)", "setting": "[6]; 600 mg PO bid, n 54, Diaz-Sandoval 2002[7]", "result": "0.21) in patients with stable chronic renal"}, {"measurement": "relative risk, RR (reduction in renal function induced by iopromide)", "setting": "[6]; 600 mg PO bid, n 83, Tepel[3-5]", "result": "contrast agent (relative risk, RR 0.10)"}, {"measurement": "reduction in the incidence of acute renal failure", "setting": "[6]; 83 patients with baseline renal impairment, computed tomography with nonionic low-osmolality contrast agent, Tepel[3-5]", "result": 90, "unit": "%"}, {"measurement": "Beneficial effects", "setting": "[6]; chronic renal insufficiency, iopromide, 600 mg PO bid with hydration, n 83, 2 days, Tepel 2000, 2001, 2003[3-5]", "result": "Beneficial"}, {"measurement": "incidence of CIN by 48 hours", "setting": "[6]; control 6.4%, 1500 mg for 4 doses, Oldemeyer 2003[188]", "result": "both groups was low (NAC 8.2%, control"}, {"measurement": "incidence of CIN at 48 hours", "setting": "[6]; control 12%, 600 mg 4 times daily, Boccalandro 2003[187]", "result": "hours (NAC, 13%; control 12%) after"}, {"measurement": "RR (contrast-induced deterioration in renal function)", "setting": "[6]; coronary angiographic procedures, 600 mg PO bid, n 200, Kay 2003[6]", "result": "adverse effects (RR 0.32). Kay, 2003[6]"}, {"measurement": "Beneficial effects", "setting": "[6]; moderate chronic renal insufficiency, coronary angiographic procedures, 600 mg PO bid, n 200, 3 days, Kay 2003[6]", "result": "Beneficial"}, {"measurement": "Beneficial effects", "setting": "[6]; oxidative stress-mediated proximal tubular injury, 1200 mg daily, n 24, 4 days, Drager 2004[271]", "result": "Beneficial"}, {"measurement": "Beneficial effects", "setting": "[6]; serum creatinine > 1.2 mg/dL, elective coronary angiography, creatinine clearance at 24 and 96 hours, 1000 mg daily, n 49, 4 days, Efarti 2003[9]", "result": "Beneficial"}, {"measurement": "Beneficial effects", "setting": "[6]; serum creatinine >= 1.5 mg/dL, elective cardiac catheterization, 600 mg 5 doses, n 43, 3 days, MacNeil 2003[10]", "result": "Beneficial"}, {"measurement": "Beneficial effects", "setting": "[6]; stable chronic renal insufficiency, coronary angiography, 400 mg PO bid for 2 days, n 121, 7 days, Shyu 2002[8]", "result": "Beneficial"}, {"measurement": "Beneficial effects", "setting": "[6]; stable chronic renal insufficiency, elective cardiac catheterization, 600 mg PO bid, n 54, 2 days, Diaz-Sandoval 2002[7]", "result": "Beneficial"}, {"measurement": "incidence of contrast nephropathy", "setting": "[6]; subset receiving <140 mL contrast agent, from 8.5%, p=0.02, 183 patients [190]", "result": 0, "unit": "%"}, {"measurement": "development of CIN by 72 hours", "setting": "[6]; vs 32.2% placebo, P = 0.046, 600 mg 5 doses, MacNeil 2003[10]", "result": "catheterization (4.8% vs 32.2%, P ="}, {"measurement": "survival", "setting": "[7]", "result": "significantly increased survival"}, {"measurement": "Beneficial effects", "setting": "Exercise; frail geriatric patients, knee extensor strength, plasma TNF, 1800 mg daily, n 44, 6 weeks, Hauer 2003[59]", "result": "Beneficial"}, {"measurement": "Beneficial effects", "setting": "Exercise; intense, intermittent exercise, reduced and oxidized GSH, 125 mg/kg/hr for 15 min, then 25 mg/kg/hr, n 8, Medved 2003[58]", "result": "Beneficial"}, {"measurement": "Beneficial effects", "setting": "Exercise; prolonged submaximal exercise, well trained individuals, performance, 125 mg/kg/hr for 15 min, then 25 mg/kg/20 min, Medved 2004[286]", "result": "Beneficial"}, {"measurement": "Beneficial effects", "setting": "[8]; NAC + nitroglycerin, incidence of acute myocardial infarction, 5 g IV, n 46, 6 hours, Horowitz 1988[175,176]", "result": "Beneficial"}, {"measurement": "Beneficial effects", "setting": "[8]; nitroglycerin + NAC with conventional therapy, outcome events, 600 mg po, n 200, 4 months, Ardissino 1997[177]", "result": "Beneficial"}, {"measurement": "RR, composite cardiovascular outcome", "setting": "hemodialysis patients; 134 chronic hemodialysis patients, p=0.03, [17]", "result": 0.60}, {"measurement": "Beneficial effects", "setting": "hemodialysis patients; Homocysteine in hemodialysis, intravenous 5 g in 5% glucose solution, n 20, 1 session, Scholze 2004[273]", "result": "Beneficial"}, {"measurement": "serum oxidized LDL values at the end of the study", "setting": "hemodialysis patients; chronic hemodialysis patients [17]", "result": "much lower"}, {"measurement": "Plasma homocysteine level change", "setting": "hemodialysis patients; chronic oral 1200 mg BID, 4 weeks, placebo −8%, P = 0.07, Friedman 2003[276]", "result": "chronic oral NAC therapy (−19%) but did"}, {"measurement": "Beneficial effects", "setting": "hemodialysis patients; composite cardiovascular end points, 600 mg bid, n 134, 1-24 months, median 14.5 months, Tepel 2003[17]", "result": "Beneficial"}, {"measurement": "Plasma homocysteine level after hemodialysis", "setting": "hemodialysis patients; control group 58 +/− 22%, P < 0.01, intravenous 5 g, Scholze 2004[273]", "result": "homocysteine levels decreased to 12 +/− 7% of predialysis level (mean +"}, {"measurement": "Beneficial effects", "setting": "hemodialysis patients; end-stage renal failure, plasma homocysteine, pulse pressure, endothelial function, 5 g in 5% glucose, n 20, Scholze 2004[273]", "result": "Beneficial"}, {"measurement": "vaso-occlusive episodes", "setting": "[9]; decreased from 0.03", "result": "occlusive episodes (0.03 to 0.006 episodes episodes per person-days"}, {"measurement": "Beneficial effects", "setting": "[9]; dense cell formation, glutathione levels, vaso-occlusive episodes, n 21", "result": "Beneficial"}, {"measurement": "Beneficial effects", "setting": "[10]; n 161", "result": "Beneficial"}, {"measurement": "improvement in mucociliary clearance", "setting": "[10]; slow clearers", "result": "a 35% improvement in mucusalary"}, {"measurement": "Beneficial effects", "setting": "Sjogren's syndrome", "result": "Beneficial"}, {"measurement": "Beneficial effects", "setting": "septic shock patients; Cardiac performance, MAP, cardiac index, left ventricular stroke work index, early administration 150 mg/kg over 15 min, 50 mg/kg over next 4 hrs, 100 mg/kg over next 24 hrs, n 20, 48 hours, Peake 1996[281]", "result": "Adverse"}, {"measurement": "Beneficial effects", "setting": "septic shock patients; hepatosplanchnic flow and function, 150 mg/kg over 15 min before 12.5 mg/kg/hr for 90 min, n 60, 2 hours, Rank 2000[44]", "result": "Beneficial"}, {"measurement": "Beneficial effects", "setting": "septic shock patients; respiratory function, ICU stay, IL-8, 150 mg/kg bolus then 50 mg/kg over 4 hr IV, n 22, 24 hours, Spapen 1998[43]", "result": "Beneficial"}, {"measurement": "Beneficial effects", "setting": "septic shock patients; tissue oxygenation, survival of responders, 150 mg/kg for 15 min, then 12.5 mg/hr over 90 min IV, n 58, 2 hrs, Spies 1994[42]", "result": "Beneficial"}, {"measurement": "Beneficial effects", "setting": "Chronic blepharitis", "result": "Beneficial"}, {"measurement": "Beneficial effects", "setting": "[11]", "result": "Adverse"}, {"measurement": "Beneficial effects", "setting": "COPD subjects; hydrogen peroxide formation in the airways, oral 600 mg fizzy, n 44, 12 months, Kasielski 2001[210]", "result": "Beneficial"}, {"measurement": "Beneficial effects", "setting": "COPD subjects; mucus viscosity, effective cough, clinical symptoms, 600 mg, n 60, 10 days, Verstraeten 1979[39]", "result": "Beneficial"}, {"measurement": "Beneficial effects", "setting": "COPD subjects; quadriceps endurance, exercise induced oxidative stress, 1800 mg for 4 days and 600 mg the day of the test, n 9, Koechlin 2004[278]", "result": "Beneficial"}, {"measurement": "Treatment effect", "setting": "Malnourished children", "result": "Beneficial"}, {"measurement": "Beneficial effects", "setting": "cardiac risk patients", "result": "Beneficial"}, {"measurement": "Treatment effect", "setting": "[12]", "result": "Beneficial"}, {"measurement": "Beneficial effects", "setting": "Cystic Fibrosis (CF); CF and primary ciliary dyskinesia, lung function, 600 mg < 30 kg or 800 mg > 30 kg per day po, n 54, 3 months, Stafanger 1988[40]", "result": "Beneficial"}, {"measurement": "Beneficial effects", "setting": "Cystic Fibrosis (CF); air trapping and FEV1, NAC or Ambroxol 200 mg 3 times daily, n 36, 12 weeks, Ratjen 1985[274]", "result": "Beneficial"}]}
